Reference: patent US10168342B2, “Lipid probes and uses thereof” (THE SCRIPPS RESEARCH INSTITUTE, priority 2015, dated 2019)

Key:
Assay in all cases: isoTOP-ABPP mapping of AEA-DA-modified peptides in Neuro2a cells
Type in all cases: cell-based
[1] = molecular target: T1, AEA-DA-modified peptides in Neuro2a cells (Mus musculus, UniProt O55234); conditions: AEA-DA-modified peptide PSMB5 O55234 141-151, SEQ ID NO 91; probe 100 μM, 12 replicates
T1 construct: endogenous in cells; host or cells: Neuro2a

[2] = molecular target: T2, AEA-DA-modified peptides in Neuro2a cells (Mus musculus, UniProt Q8R2Y8); conditions: AEA-DA-modified peptide PTRH2 Q8R2Y8 35-69, SEQ ID NO 93; probe 100 μM, 12 replicates
T2 construct: endogenous in cells; host or cells: Neuro2a

[3] = molecular target: T3, AEA-DA-modified peptides in Neuro2a cells (Mus musculus, UniProt Q61335); conditions: AEA-DA-modified peptide BCAP31 Q61335 73-80, SEQ ID NO 21; probe 100 μM, 12 replicates
T3 construct: endogenous in cells; host or cells: Neuro2a

[4] = molecular target: T4, AEA-DA-modified peptides in Neuro2a cells (Mus musculus, UniProt Q8BMK4); conditions: AEA-DA-modified peptide CKAP4 Q8BMK4 292-307, SEQ ID NO 23; probe 100 μM, 12 replicates
T4 construct: endogenous in cells; host or cells: Neuro2a

[5] = molecular target: T5, AEA-DA-modified peptides in Neuro2a cells (Mus musculus, UniProt Q9Z0V8); conditions: probe 100 μM, 12 replicates
T5 construct: endogenous in cells; host or cells: Neuro2a

[6] = molecular target: T6, AEA-DA-modified peptides in Neuro2a cells (Mus musculus, UniProt Q9CZS1); conditions: AEA-DA-modified peptide ALDH1B1 Q9CZS1 119-147, SEQ ID NO 8; probe 100 μM, 12 replicates
T6 construct: endogenous in cells; host or cells: Neuro2a

[7] = molecular target: T7, AEA-DA-modified peptides in Neuro2a cells (Mus musculus, UniProt P18242); conditions: AEA-DA-modified peptide CTSD P18242 312-330, SEQ ID NO 27; probe 100 μM, 12 replicates
T7 construct: endogenous in cells; host or cells: Neuro2a

[8] = molecular target: T8, AEA-DA-modified peptides in Neuro2a cells (Mus musculus, UniProt P62259); conditions: AEA-DA-modified peptide YWHAE P62259 197-226, SEQ ID NO 121; probe 100 μM, 12 replicates
T8 construct: endogenous in cells; host or cells: Neuro2a

[9] = molecular target: T9, AEA-DA-modified peptides in Neuro2a cells (Mus musculus, UniProt Q9CQX2); conditions: AEA-DA-modified peptide CYB5B Q9CQX2 138-145, SEQ ID NO 28; probe 100 μM, 12 replicates
T9 construct: endogenous in cells; host or cells: Neuro2a

[10] = molecular target: T10, AEA-DA-modified peptides in Neuro2a cells (Mus musculus, UniProt Q9CZN7); conditions: probe 100 μM, 12 replicates
T10 construct: endogenous in cells; host or cells: Neuro2a

[11] = molecular target: T11, AEA-DA-modified peptides in Neuro2a cells (Mus musculus, UniProt Q99KQ4); conditions: probe 100 μM, 12 replicates
T11 construct: endogenous in cells; host or cells: Neuro2a
T11 sequence (Q99KQ4 whole entry): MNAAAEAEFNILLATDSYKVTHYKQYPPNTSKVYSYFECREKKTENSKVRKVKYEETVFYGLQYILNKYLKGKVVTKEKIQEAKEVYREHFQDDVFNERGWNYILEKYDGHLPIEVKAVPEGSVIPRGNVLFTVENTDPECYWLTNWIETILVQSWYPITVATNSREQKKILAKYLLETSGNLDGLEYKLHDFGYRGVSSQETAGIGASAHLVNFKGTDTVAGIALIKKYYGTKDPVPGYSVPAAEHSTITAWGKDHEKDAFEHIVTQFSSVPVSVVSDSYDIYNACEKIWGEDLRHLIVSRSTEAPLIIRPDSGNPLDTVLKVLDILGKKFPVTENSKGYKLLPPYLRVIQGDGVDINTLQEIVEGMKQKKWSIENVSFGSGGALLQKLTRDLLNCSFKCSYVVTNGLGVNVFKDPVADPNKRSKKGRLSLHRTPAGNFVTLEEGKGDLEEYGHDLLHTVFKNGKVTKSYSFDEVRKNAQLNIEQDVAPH

T5 sequence (Q9Z0V8 whole entry): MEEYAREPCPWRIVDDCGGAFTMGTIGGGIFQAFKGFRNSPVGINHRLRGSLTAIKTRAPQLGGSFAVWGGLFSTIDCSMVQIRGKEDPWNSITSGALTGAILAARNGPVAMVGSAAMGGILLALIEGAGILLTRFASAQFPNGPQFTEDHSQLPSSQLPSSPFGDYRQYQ
T10 sequence (Q9CZN7 30-504): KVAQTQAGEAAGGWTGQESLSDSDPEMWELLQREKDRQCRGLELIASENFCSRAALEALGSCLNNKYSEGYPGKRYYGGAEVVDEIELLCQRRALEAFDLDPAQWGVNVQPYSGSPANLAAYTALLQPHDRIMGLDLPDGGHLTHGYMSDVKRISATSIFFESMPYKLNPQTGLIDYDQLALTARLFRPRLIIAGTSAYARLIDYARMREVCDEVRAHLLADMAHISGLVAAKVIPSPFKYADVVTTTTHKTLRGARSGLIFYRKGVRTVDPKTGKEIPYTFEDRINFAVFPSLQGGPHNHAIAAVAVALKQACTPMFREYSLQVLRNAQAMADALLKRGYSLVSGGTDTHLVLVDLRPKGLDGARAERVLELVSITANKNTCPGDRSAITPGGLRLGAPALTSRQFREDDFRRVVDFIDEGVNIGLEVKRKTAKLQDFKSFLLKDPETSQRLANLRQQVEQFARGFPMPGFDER
T8 sequence (P62259 whole entry): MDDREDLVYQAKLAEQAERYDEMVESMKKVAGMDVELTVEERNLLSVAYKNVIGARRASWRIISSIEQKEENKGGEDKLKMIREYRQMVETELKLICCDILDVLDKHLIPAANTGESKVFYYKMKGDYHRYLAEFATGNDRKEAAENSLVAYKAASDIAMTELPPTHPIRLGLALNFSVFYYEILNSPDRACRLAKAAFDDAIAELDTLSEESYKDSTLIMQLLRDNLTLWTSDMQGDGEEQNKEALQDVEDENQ
T7 sequence (P18242 65-410): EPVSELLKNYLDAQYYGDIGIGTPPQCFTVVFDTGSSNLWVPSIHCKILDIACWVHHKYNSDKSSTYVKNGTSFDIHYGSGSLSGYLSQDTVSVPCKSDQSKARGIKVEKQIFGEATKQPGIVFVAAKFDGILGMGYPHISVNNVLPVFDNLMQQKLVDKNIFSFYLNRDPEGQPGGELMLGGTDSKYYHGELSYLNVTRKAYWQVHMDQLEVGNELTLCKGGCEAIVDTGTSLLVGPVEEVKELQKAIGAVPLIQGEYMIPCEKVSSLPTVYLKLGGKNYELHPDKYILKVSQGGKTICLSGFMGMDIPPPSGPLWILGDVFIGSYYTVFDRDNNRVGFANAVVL
T4 sequence (Q8BMK4 whole entry): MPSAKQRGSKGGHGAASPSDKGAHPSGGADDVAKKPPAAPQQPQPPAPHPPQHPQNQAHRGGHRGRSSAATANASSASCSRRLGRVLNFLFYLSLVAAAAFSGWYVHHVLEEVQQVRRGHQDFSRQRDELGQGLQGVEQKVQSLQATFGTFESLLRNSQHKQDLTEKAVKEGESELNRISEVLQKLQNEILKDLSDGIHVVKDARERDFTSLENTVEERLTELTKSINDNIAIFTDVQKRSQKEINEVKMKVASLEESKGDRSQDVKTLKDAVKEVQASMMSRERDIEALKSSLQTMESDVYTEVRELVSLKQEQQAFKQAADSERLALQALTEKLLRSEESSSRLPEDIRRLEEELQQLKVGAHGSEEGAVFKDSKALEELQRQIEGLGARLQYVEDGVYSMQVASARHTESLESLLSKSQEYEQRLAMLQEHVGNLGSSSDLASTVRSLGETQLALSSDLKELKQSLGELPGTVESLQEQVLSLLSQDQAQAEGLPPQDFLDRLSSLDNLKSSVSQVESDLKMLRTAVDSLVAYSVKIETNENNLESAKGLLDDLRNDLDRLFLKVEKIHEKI
T9 sequence (Q9CQX2 12-146): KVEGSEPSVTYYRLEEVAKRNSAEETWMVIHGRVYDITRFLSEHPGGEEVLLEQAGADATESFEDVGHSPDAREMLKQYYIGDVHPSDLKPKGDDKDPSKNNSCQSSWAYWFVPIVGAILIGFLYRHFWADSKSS
T1 sequence (O55234 60-264): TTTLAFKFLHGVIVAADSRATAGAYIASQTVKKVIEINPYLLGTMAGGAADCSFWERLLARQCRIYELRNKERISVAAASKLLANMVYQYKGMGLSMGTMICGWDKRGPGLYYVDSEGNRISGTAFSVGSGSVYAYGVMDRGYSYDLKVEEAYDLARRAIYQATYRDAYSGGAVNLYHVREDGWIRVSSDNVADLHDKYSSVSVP
T3 sequence (Q61335 whole entry): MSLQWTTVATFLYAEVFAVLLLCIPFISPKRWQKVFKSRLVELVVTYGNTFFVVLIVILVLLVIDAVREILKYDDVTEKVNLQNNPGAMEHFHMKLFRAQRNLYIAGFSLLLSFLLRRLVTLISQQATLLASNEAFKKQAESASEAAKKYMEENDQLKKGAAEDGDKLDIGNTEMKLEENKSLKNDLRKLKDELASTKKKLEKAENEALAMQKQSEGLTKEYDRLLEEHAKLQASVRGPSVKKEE
T2 sequence (Q8R2Y8 whole entry): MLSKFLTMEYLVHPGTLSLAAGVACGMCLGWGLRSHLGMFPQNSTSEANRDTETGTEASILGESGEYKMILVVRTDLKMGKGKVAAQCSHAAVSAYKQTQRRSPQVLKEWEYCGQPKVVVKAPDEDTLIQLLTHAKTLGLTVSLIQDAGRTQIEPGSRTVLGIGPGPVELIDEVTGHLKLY
T6 sequence (Q9CZS1 20-519): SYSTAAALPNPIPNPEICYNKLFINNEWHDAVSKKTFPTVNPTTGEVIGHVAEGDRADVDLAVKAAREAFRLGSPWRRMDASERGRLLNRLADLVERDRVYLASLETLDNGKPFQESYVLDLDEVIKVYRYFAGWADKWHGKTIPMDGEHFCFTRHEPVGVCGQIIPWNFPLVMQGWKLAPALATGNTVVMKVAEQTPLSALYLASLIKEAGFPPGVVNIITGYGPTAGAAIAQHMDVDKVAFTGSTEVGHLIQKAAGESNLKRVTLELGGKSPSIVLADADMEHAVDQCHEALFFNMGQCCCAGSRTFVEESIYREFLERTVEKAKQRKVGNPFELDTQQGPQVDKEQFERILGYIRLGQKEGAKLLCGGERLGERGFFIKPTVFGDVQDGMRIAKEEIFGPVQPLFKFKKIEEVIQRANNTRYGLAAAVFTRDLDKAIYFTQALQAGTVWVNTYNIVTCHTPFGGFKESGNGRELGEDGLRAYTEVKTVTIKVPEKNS

C#CCCCC1(CC/C=C\C/C=C\C/C=C\CCCC(=O)NCCO)N=N1 [AEA-DA, (5Z,8Z,11Z)-N-(2-hydroxyethyl)-14-(3-(pent-4-yn-1-yl)-3H-diazirin-3-yl)tetradeca-5,8,11-trienamide]
Times observed [1]: 11 | Times observed [2]: 2 | Times observed [3]: 2 | Times observed [4]: 7 | Times observed ([5]; AEA-DA-modified peptide TIMM17A Q9Z0V8 13-36, SEQ ID NO 111): 9 | Times observed ([5]; AEA-DA-modified peptide TIMM17A Q9Z0V8 85-107, SEQ ID NO 112): 4 | Times observed [6]: 4 | Times observed [7]: 12 | Times observed [8]: 8 | Times observed [9]: 2 | Times observed ([10]; AEA-DA-modified peptide SHMT2 Q9CZN7 105-122, SEQ ID NO 101): 9 | Times observed ([10]; AEA-DA-modified peptide SHMT2 Q9CZN7 161-182, SEQ ID NO 102): 3 | Times observed ([11]; AEA-DA-modified peptide NAMPT Q99KQ4 175-190, SEQ ID NO 64): 10 | Times observed ([11]; AEA-DA-modified peptide NAMPT Q99KQ4 303-324, SEQ ID NO 65): 2
